The nature of the data set: log P by HPLC on reversed-phase column (C18), EEC Directive 79/831 Annex V.A8. Type of data set: physicochemical. Conditions: C18, 40° C., 0.1% aqueous formic acid and acetonitrile, gradient 10% to 90% acetonitrile. As for the experimental part: Temperature: 40° C.; Mobile phases: 0.1% aqueous formic acid and acetonitrile; linear gradient from 10% acetonitrile to 90% acetonitrile.

Turning to `COc1ccc(CN(C(=O)c2occc2C)C2CC2)cn1` [Example 59], the logP turned out to be 2.46. The same measure, in the same setting: then `COc1ccc(CN(C(=O)c2c(C)nn(C)c2F)C2CC2)cn1` [Example 60], with 1.64; and `COc1ccc(CN(C(=O)c2cn(C)nc2C(F)F)C2CC2)cn1` [Example 61], with 1.8; and `COc1ccc(CN(C(=O)c2ocnc2C)C2CC2)cn1` [Example 62], with 1.72. The same measure, in the same setting: then `COc1ccc(CN(C(=O)c2cc(C)on2)C2CC2)cn1` [Example 63], with 2.08; and `COc1ccc(CN(C(=O)c2cc(C)n(C)n2)C2CC2)cn1` [Example 64], with 1.74. Take `Cn1cc(C(=O)N(Cc2ccc(Cl)nc2)C2CC2)c(C(F)(F)F)n1` [Example 65]: the logP was 2.02. Still for that read-out and setting: as for `O=C(c1ccsc1I)N(Cc1ccc(Cl)nc1)C1CC1` [Example 66], the figure is 2.67. Same read-out and setting: as for `Cn1cc(C(=O)N(Cc2ccc(Cl)nc2)C2CC2)c(C(F)F)n1` [Example 72], the figure is 1.97; as for `Cn1cc(C(=S)N(Cc2ccc(Cl)nc2)C2CC2)c(C(F)F)n1` [Example 73], 2.58; as for `COc1nn(C)cc1C(=O)N(Cc1ccc(Cl)nc1)C1CC1` [Example 74], 1.56. Consider `Cc1nc(C(F)(F)F)ccc1CN(C(=O)c1cn(C)nc1C(F)(F)F)C1CC1` [Example 85], for which the logP is reported as 2.82. Same read-out and setting: then `Cc1nc(C(F)(F)F)ccc1CN(C(=O)c1cn(C)nc1C(F)F)C1CC1` [Example 87], with 2.51; and `COc1nn(C)cc1C(=O)N(Cc1ccc(C(F)(F)F)nc1C)C1CC1` [Example 88], with 2.02. Turning to `O=C(c1ccsc1I)N(Cc1c(Cl)cncc1Cl)C1CC1` [Example 97], the logP came to 3.21.

As for `Cc1nc(C(=O)N(Cc2c(Cl)cncc2Cl)C2CC2)c(C)o1` [Example 99], the logP was 2.18. Still for that read-out and setting: then `Cc1nn(C)cc1C(=O)N(Cc1c(Cl)cncc1Cl)C1CC1` [Example 100], with 1.8; and `Cc1ccoc1C(=O)N(Cc1c(Cl)cncc1Cl)C1CC1` [Example 101], with 2.87; and `Cc1nn(C)c(F)c1C(=O)N(Cc1c(Cl)cncc1Cl)C1CC1` [Example 102], with 2.01. The same measure, in the same setting: then `Cn1cc(C(=O)N(Cc2c(Cl)cncc2Cl)C2CC2)c(C(F)F)n1` [Example 103], with 1.88.

Turning to `Cn1cc(C(=S)N(Cc2c(Cl)cncc2Cl)C2CC2)c(C(F)F)n1` [Example 104], the logP was found to be 2.93.

`Cc1ncoc1C(=O)N(Cc1c(Cl)cncc1Cl)C1CC1` [Example 105] displayed a logP of 2.04. In the case of `Cc1cc(C(=O)N(Cc2c(Cl)cncc2Cl)C2CC2)no1` [Example 106], the logP is listed as 2.4. `Cc1cc(C(=O)N(Cc2c(Cl)cncc2Cl)C2CC2)nn1C` [Example 107] gave a logP of 2. On the same count and under the same terms, as for `COc1ccnc(CN(C(=O)c2cn(C)nc2C(F)(F)F)C2CC2)c1OC` [Example 108], the figure is 1.18; as for `COc1ccnc(CN(C(=O)c2ccsc2I)C2CC2)c1OC` [Example 109], 1.47. On the same count and under the same terms, as for `COc1ccnc(CN(C(=O)c2sc(C)nc2C(F)F)C2CC2)c1OC` [Example 110], the figure is 1.2; as for `COc1ccnc(CN(C(=O)c2nn(C)nc2C(F)(F)F)C2CC2)c1OC` [Example 111], 1.44. Compound `COc1ccnc(CN(C(=O)c2cn(C)cc2C(F)(F)F)C2CC2)c1OC` [Example 112] showed a logP of 1.32. Regarding `COc1ccnc(CN(C(=O)c2c(C)nn(C)c2F)C2CC2)c1OC` [Example 113, N-cyclopropyl-N-[(3,4-dimethoxypyridin-2-yl)methyl]-5-fluoro-1,3-dimethyl-1H-pyrazole-4-carboxamide], the chromatographic logP (reversed-phase HPLC column (C18)) is 1.65. Compound `COc1ccnc(CN(C(=O)c2cn(C)nc2C(F)F)C2CC2)c1OC` [Example 114] yielded a logP of 1.05.

As to `COc1ccnc(CN(C(=O)c2cn(C)nc2OC)C2CC2)c1OC` [Example 115], the logP was found to be 0.56.

As usually defined, the logP is the decadic logarithm of the partition coefficient of the neutral form, usually between octanol and water. Read a high logP as a more lipophilic compound. A word on the chromatographic logP: it is a lipophilicity value derived from retention on a column. A lower chromatographic logP goes with a more hydrophilic compound.

The record behind these values is patent US7803821B2, “Fungicide N-cycloalkyl-carboxamide, thiocarboxamide and N-substituted-carboximidamide derivatives” (Bayer Cropscience SA, priority 2006, dated 2010).
